According to patent publication US12171229B2, “Heteroaryl-triazole and heteroaryl-tetrazole compounds as pesticides” (BAYER AKTIENGESELLSCHAFT, priority 2018, dated 2024):

Key:
Type in all cases: in vivo
[1] = test system: Nezara viridula; experiment: Nezara viridula spray test; details: 96 h, after 4 days, larvae on barley plants
Method: Nezara viridula—Spray Test
(§1) To produce a suitable preparation of active compound, 1 part by weight of active compound is mixed with the stated amount of solvent, and the concentrate is diluted with water, containing an emulsifier concentration of 1000 ppm, to the desired concentration. Further test concentrations are prepared by dilution with emulsifier containing water.
Barley plants (Hordeum vulgare) infested with larvae of the southern green stink bug (Nezara viridula) are sprayed with a test solution containing the desired concentration of the active ingredient.
After 4 days mortality in % is determined. 100% means all the stink bugs have been killed: 0% means none of the stink bugs have been killed.

[2] = test system: Diabrotica balteata; experiment: Diabrotica balteata spray test; details: Diabrotica balteata, in Triticum aestivum, 168 h, after 7 days, larvae on wheat seeds, read-out: efficacy (seedlings grown up); for pest or weed control at 160 µg/disc, 500 g/ha: 160 μg/well (=500 g/ha); for pest or weed control at 80 µg/disc, 250 g/ha: 80 μg/well (=250 g/ha)
Method: Diabrotica balteata—Spray Test [table] To produce a suitable preparation of active compound, 1 part by weight of active compound is mixed with the stated amount of solvent, and the concentrate is diluted with water, containing an emulsifier concentration of 1000 ppm, to the desired concentration. Further test concentrations are prepared by dilution with emulsifier containing water. Soaked wheat seeds (Triticum aestivum) are placed in a multiple well plate filled with agar and some water and are incubated for 1 day to germinate (5 seeds per well). The germinated wheat seeds are sprayed with a test solution containing the desired concentration of the active ingredient. Afterwards each unit is infected with 10-20 larvae of the banded cucumber beetle (Diabrotica balteata). After 7 days efficacy in % is determined. 100% means all the seedlings have grown up like in the untreated, uninfected control; 0% means none of the seedlings have grown.

[3] = test system: Myzus persicae; experiment: Myzus persicae oral test; details: 120 h, 4 ppm, after 5 days
Method: Solvent: 100 parts by weight acetone
To produce a suitable preparation of active compound, 1 part by weight of active compound is mixed with the stated amount of solvent, and the concentrate is diluted with water to the desired concentration.
50 μl compound solution is filled in microtiter plates and 150 μl IPL41 insect medium (33%+15% sugar) is added to obtain a total volume of 200 μl per well. Afterwards the plates are sealed with parafilm through which a mixed population of the green peach aphid (Myzus persicae) can suck on the compound preparation.
(§2) After 5 days mortality in % is determined. 100% means all aphids have been killed and 0% means none of the aphids have been killed.

[4] = test system: Myzus persicae; experiment: Myzus persicae spray test; details: foliar, 120 h, after 5 days, Chinese cabbage leaf disks
Method: Myzus persicae—Spray Test
as §1, with “solvents” for “solvent,”, “and” for “and the concentrate”
Chinese cabbage (Brassica pekinensis) leaf disks infected with all instars of the green peach aphid (Myzus persicae), are sprayed with a preparation of the active ingredient of the desired concentration.
as §2

[5] = test system: Spodoptera frugiperda; experiment: Spodoptera frugiperda spray test; details: 168 h, after 7 days, larvae on maize leaf sections
Method: Spodoptera frugiperda—Spray Test
as §1, with “solvents” for “solvent,”, “and” for “and the concentrate”
Maize (Zea mays) leaf sections are sprayed with a preparation of the active ingredient of the desired concentration. Once dry, the leaf sections are infested with fall armyworm larvae (Spodoptera frugiperda).
After 7 days mortality in % is determined. 100% means all caterpillars have been killed and 0% means none of the caterpillars have been killed.

[6] = test system: Ctenocephalides felis; experiment: Ctenocephalides felis in-vitro contact test, adult cat flea; details: 5 μg/cm^2 (=500 g/ha), after 48 hours, adult cat fleas, read-out: efficacy (fleas dead or moribund)
Method: Ctenocephalides Felis—In-Vitro Contact Tests Adult Cat Flea 9 mg compound is solved in 1 ml acetone and diluted with acetone to the desired concentration. 250 μl of the test solution is filled in 25 ml glass test tubes and homogeneously distributed on the inner walls by rotation and tilting on a shaking device (2 h at 30 rpm). With a compound concentration of 900 ppm, an inner surface of 44.7 cm^2 and a homogeneous distribution, a dose of 5 μg/cm^2 is achieved. After the solvent has evaporated, each test tube is filled with 5-10 adult cat fleas (Ctenocephalides felis), closed with a perforated lid and incubated in a lying position at room temperature and relative humidity. After 48 hours efficacy is determined. The fleas are patted on the ground of the tubes and are incubated on a heating plate at 45-50° C. for at most 5 minutes. Immotile or uncoordinated moving fleas, which are not able to escape the heat by climbing upwards, are marked as dead or moribund. […] An efficacy of 100% means all fleas are dead or moribund; 0% means no fleas are dead or moribund.

[7] = test system: Ctenocephalides felis; experiment: Ctenocephalides felis oral test; details: 48 h, 100 ppm in cattle blood, after 2 days, adult unfed cat fleas
Method: Ctenocephalides Felis—Oral Test
Solvent: dimethyl sulfoxide
To produce a suitable preparation of active compound, 10 mg of active compound are dissolved in 0.5 ml solvent, and the concentrate is diluted with cattle blood to the desired concentration.
Approximately 20 adult unfed cat fleas (Ctenocephalides felis) are placed in flea chambers. The blood chamber, sealed with parafilm on the bottom, are filled with cattle blood supplied with compound solution and placed on the gauze covered top of the flea chamber, so that the fleas are able to suck the blood. The blood chamber is heated to 37° C. whereas the flea chamber is kept at room temperature.
After 2 days mortality in % is determined. 100% means all the fleas have been killed; 0% means none of the fleas have been killed.

[8] = test system: Aedes aegypti strain MONHEIM; experiment: Aedes aegypti test (AEDSAE surface treatment & contact assay); details: surface concentration 20 mg/m^2, exposure 30 minutes, 24 hours after contact, read-out: efficacy (mortality)
Method: Aedes Aegypti Test (AEDSAE Surface Treatment & Contact Assay)
(§3) Solvent: Aceton+2000 ppm rapeseed oil methyl ester (RME)
(§4) In order to produce a sufficient, active ingredient containing solution it is necessary to solve the test compound in the solvent-mix (acetone at 2 mg/ml/RME 2000 ppm). This solution is pipetted onto a glazed tile and after evaporation of the acetone, adult mosquitoes of the species Aedes aegypti strain MONHEIM are placed onto the dried surface. The exposure time is 30 minutes.
(§5) Mortality in percent (%) is determined 24 hours after contact of the insects to the treated surface. 100% mortality means that all tested insects are dead, whereas 0% means that no insect died.

[9] = test system: Boophilus microplus; experiment: Boophilus microplus injection test; details: Rhipicephalus microplus, 168 h; 20 μg/animal injected into the abdomen; adult engorged female ticks; egg deposition after 7 days; read-out: efficacy (infertile eggs)
Method: Boophilus Microplus—Injection Test Solvent: dimethyl sulfoxide To produce a suitable preparation of active compound, 10 mg of active compound are dissolved in 0.5 ml solvent, and the concentrate is diluted with solvent to the desired concentration. Five adult engorged female ticks (Boophilus microplus) are injected with 1 μl compound solution into the abdomen. The ticks are transferred into replica plates and incubated in a climate chamber. After 7 days egg deposition of fertile eggs is monitored. Eggs where fertility is not visible are stored in a climate chamber till hatching after about 42 days. An efficacy of 100% means all eggs are infertile; 0% means all eggs are fertile.

[10] = test system: Culex quinquefasciatus strain P00; experiment: Culex quinquefasciatus test (CULXFA surface treatment & contact assay); details: surface concentration 4 mg/m^2, exposure 30 minutes, 24 hours after contact, read-out: efficacy (mortality)
Method: Culex Quinquefasciatus Test (CULXFA Surface Treatment & Contact Assay)
as §3
as §4, with “Culex quinquefasciatus” for “Aedes aegypti”, “P00” for “MONHEIM”
as §5

## Cc1nc([C@H](C)NC(=O)c2cc(Cl)cc(Cl)c2)n(-c2ccc(C#N)cn2)n1 [Example I-115]
[1]
  mortality at 500 g/ha: 100%
[2]
  pest or weed control at 160 µg/disc, 500 g/ha: 100%
[3]
  mortality at 4 ppm: 100%
[4]
  mortality at 100 g/ha: 90%
  mortality at 500 g/ha: 100%
[5]
  mortality at 100 g/ha: 100%
  mortality at 500 g/ha: 100%

## C[C@H](NC(=O)c1cc(Cl)cc(OC(F)F)c1)c1ncnn1-c1ccc(C#N)cn1 [Example I-107]
[1]
  mortality at 100 g/ha: 100%
  mortality at 500 g/ha: 100%
[2]
  pest or weed control at 160 µg/disc, 500 g/ha: 100%
[3]
  mortality at 4 ppm: 100%
[4]
  mortality at 100 g/ha: 90%
  mortality at 500 g/ha: 90%
[5]
  mortality at 100 g/ha: 100%
  mortality at 500 g/ha: 100%

## C[C@H](NC(=O)c1cc(Cl)cc(C(F)(F)F)c1)c1ncnn1-c1nccs1 [Example I-082, 3-chloro-N-{(1S)-1-[1-(1,3-thiazol-2-yl)-1H-1,2,4-triazol-5-yl]ethyl}-5-(trifluoromethyl)benzamide]
[6]
  pest or weed control at 5 µg/cm2: 90%
[1]
  mortality at 500 g/ha: 100%
[2]
  pest or weed control at 80 µg/disc, 250 g/ha: 100%
  pest or weed control at 160 µg/disc, 500 g/ha: 100%
[5]
  mortality at 100 g/ha: 100%
  mortality at 500 g/ha: 100%

## C[C@H](NC(=O)c1cc(Cl)cc(C(F)(F)F)c1)c1ncnn1-c1ccc(NS(C)(=O)=O)cn1 [Example I-054]
[1]
  mortality at 100 g/ha: 90%
  mortality at 500 g/ha: 100%
[2]
  pest or weed control at 80 µg/disc, 250 g/ha: 100%
  pest or weed control at 160 µg/disc, 500 g/ha: 100%
[3]
  mortality at 4 ppm: 100%
[4]
  mortality at 100 g/ha: 90%
  mortality at 500 g/ha: 90%

## CC(=O)Nc1ccc(-n2ncnc2[C@H](C)NC(=O)c2cc(Cl)cc(OC(F)(F)F)c2)nc1 [Example I-106]
[1]
  mortality at 500 g/ha: 100%
[2]
  pest or weed control at 80 µg/disc, 250 g/ha: 100%
  pest or weed control at 160 µg/disc, 500 g/ha: 100%
[3]
  mortality at 4 ppm: 100%
[4]
  mortality at 500 g/ha: 90%
[5]
  mortality at 100 g/ha: 100%
  mortality at 500 g/ha: 100%

## C[C@H](NC(=O)c1cc(Cl)cc(C(F)(F)F)c1)c1ncnn1-c1ccc(NC(=S)C2CC2)cn1 [Example I-098]
[7]
  mortality at 100 ppm: 100%
[1]
  mortality at 500 g/ha: 90%
[2]
  pest or weed control at 80 µg/disc, 250 g/ha: 100%
  pest or weed control at 160 µg/disc, 500 g/ha: 100%
[3]
  mortality at 4 ppm: 100%
[4]
  mortality at 100 g/ha: 90%
  mortality at 500 g/ha: 90%
[5]
  mortality at 100 g/ha: 100%
  mortality at 500 g/ha: 100%

## C[C@H](NC(=O)c1cc(Cl)cc(C(F)(F)F)c1)c1ncnn1-c1ccc(NC(=O)C2(Cl)CC2)cn1 [Example I-104]
[1]
  mortality at 500 g/ha: 90%
[2]
  pest or weed control at 160 µg/disc, 500 g/ha: 100%
[3]
  mortality at 4 ppm: 90%
[4]
  mortality at 500 g/ha: 90%
[5]
  mortality at 100 g/ha: 100%
  mortality at 500 g/ha: 100%

## C[C@H](NC(=O)c1cc(F)c(F)c(F)c1)c1ncnn1-c1ccc(C#N)cn1 [Example I-020]
[7]
  mortality at 100 ppm: 100%
[8]
  mortality at 20 mg/m2: 90 to 100%
[9]
  pest or weed control at 0.02 mg: 100%
[2]
  pest or weed control at 80 µg/disc, 250 g/ha: 100%
  pest or weed control at 160 µg/disc, 500 g/ha: 100%
[10]
  mortality at 4 mg/m2: 90 to 100%
[5]
  mortality at 500 g/ha: 100%

## C[C@H](NC(=O)c1cc(Cl)cc(C(F)(F)F)c1)c1ncnn1-c1ccc(NC(=O)C2(C#N)CC2)cn1 [Example I-076]
[7]
  mortality at 100 ppm: 90%
[9]
  pest or weed control at 0.02 mg: 100%
[2]
  pest or weed control at 80 µg/disc, 250 g/ha: 100%
  pest or weed control at 160 µg/disc, 500 g/ha: 100%
[3]
  mortality at 4 ppm: 100%
[4]
  mortality at 500 g/ha: 100%
[5]
  mortality at 100 g/ha: 100%
  mortality at 500 g/ha: 100%

## C[C@H](NC(=O)c1cc(Cl)cc(OC(F)(F)F)c1)c1ncnn1-c1ccc(NC(=O)C2CC2)cn1 [Example I-105]
[1]
  mortality at 100 g/ha: 100%
  mortality at 500 g/ha: 100%
[2]
  pest or weed control at 80 µg/disc, 250 g/ha: 100%
  pest or weed control at 160 µg/disc, 500 g/ha: 100%
[3]
  mortality at 4 ppm: 100%
[4]
  mortality at 500 g/ha: 90%
[5]
  mortality at 100 g/ha: 100%
  mortality at 500 g/ha: 100%

## CC[C@H](NC(=O)c1cc(Cl)cc(OC(F)(F)F)c1)c1ncnn1-c1ccc([N+](=O)[O-])cn1 [Example I-071]
[6]
  pest or weed control at 5 µg/cm2: 80%

## Cc1nc([C@H](C)NC(=O)c2cc(Cl)cc(OC(F)(F)F)c2)n(-c2ccc(C#N)cn2)n1 [Example I-116]
[1]
  mortality at 100 g/ha: 90%
  mortality at 500 g/ha: 100%
[2]
  pest or weed control at 160 µg/disc, 500 g/ha: 100%
[3]
  mortality at 4 ppm: 100%
[4]
  mortality at 100 g/ha: 100%
  mortality at 500 g/ha: 100%
[5]
  mortality at 100 g/ha: 100%
  mortality at 500 g/ha: 100%

## C[C@H](NC(=O)c1cc(F)c(Cl)c(F)c1)c1ncnn1-c1ccc(C#N)cn1 [Example I-021]
[7]
  mortality at 100 ppm: 100%
[3]
  mortality at 4 ppm: 100%
[4]
  mortality at 100 g/ha: 100%
[5]
  mortality at 500 g/ha: 100%
